Reference: patent publication US20240343747A1, “Heteroaryl compounds as inhibitors of TYK2, composition and application thereof” (Accro Bioscience (HK) Limited, priority 2021, published 2024)

Legend:
[1] = Plasma protein binding test, monkey; type: in vitro ADME
Experimental: (§1) • 1. Test compound and control compound were dissolved in dimethyl sulfoxide (DMSO) to achieve 10 mM stock solutions. DMSO working solutions were prepared at 400 μM. To prepare the loading matrix, compound working solutions (5 μL) were added in a 1:200 ratio to blank matrix (995 μL), and mixed thoroughly. • 2. To prepare the time zero (TO) samples to be used for recovery determination, 50 μL aliquots of loading matrix were transferred in triplicate to the sample collection plate. The samples were immediately matched with opposite blank buffer to obtain a final volume of 100 μL of 1:1 matrix/dialysis buffer (v/v) in each well. 500 μL of stop solution were added to these TO samples. They were then stored at 2-8° C. pending further processes along with other post-dialysis samples. • 3. To load the dialysis device, an aliquot of 150 μL of the loading matrix was transferred to the donor side of each dialysis well in triplicate, and 150 μL of the dialysis buffer was loaded to the receiver side of the well. The dialysis plate was placed in a humidified incubator at 37° C. with 5% CO2 on a shaking platform that rotated slowly (about 100 rpm) for 4 hours • 4. At the end of the dialysis, aliquots of 50 μL of samples were taken from both the buffer side and the matrix side of the dialysis device. […]
(§2) The % Unbound and % Bound were calculated using the following equations: […]

[2] = Plasma protein binding test, rat; type: in vitro ADME
Experimental: as §1, §2

[3] = Pharmacokinetic evaluation in mice; type: in vivo; settings: for plasma exposure and bioavailability in mice (in words): conclusion from Table 9; for AUC / Vd / clearance / half-life / Cmax / Tmax: male, mouse, plasma; for AUC / Vd / clearance / half-life / Cmax / Tmax / F: mice
Experimental: The mice pharmacokinetic characteristics of compounds were tested by standard protocols. The candidate compounds were made into clear solution for single intravenous injection (i.v.) and suspension for oral administration (p.o.). Intravenous vehicle is 5% DMSO+10% Solutol+85% Saline. Of which adjusts pH to 3 for B37. While oral vehicle is 0.5% CMCNa for B2 and B22, 5% DMSO+10% Solutol+85% Saline, PH˜3 for B37, 5% DMSO+10% Solutol+85% Saline for B41. The experiment used 6 male mice and 3 mice for intravenous at a dose of 2 mg/kg. Plasma samples were collected at 0 h (before dosing) and 0.083 h, 0.25 h, 0.5 h, 1 h, 2 h, 4 h, 8 h, 24 h after dosing. Another 3 mice were orally administrated with a dose of 10 mg/kg. Plasma samples were collected at 0 h (before dosing) and 0.25 h, 0.5 h, 1 h, 2 h, 4 h, 6 h, 8 h, 24 h after dosing.
Blood samples were placed in tubes containing K2-EDTA and stored on ice until centrifuged. The blood samples were centrifuged at 6800 g for 6 minutes at 2-8° C. within 1 h after collected, and stored frozen at approximately −80° C.
The analytical results were confirmed using quality control samples for intra-assay variation. The accuracy of >66.7% of the quality control samples and 50% of all QC samples at each concentration level were between 80-120% of the known value(s).
Standard set of parameters including area under the curve (AUC(0-t) and AUC(0-∞)), elimination half-live (T1/2), maximum plasma concentration (Cmax), time to reach maximum plasma concentration (Tmax) were calculated using noncompartmental analysis modules in FDA certified pharmacokinetic program Phoenix WinNonlin 7.0 (Pharsight, USA) by the Study Director.

[4] = test system: JAK2/JAK2 pathway; assay: Selectivity: JAK2/JAK2 pathway, TPO-induced p-STAT3 in MEG-1 cells, western blot; type: cell-based; settings: TPO 100 ng/mL
Experimental: MEG-1 cells were digested by trypsin, re-suspended in 1640 medium and counted. The compounds to be measured were added to 6 well plates (1 million/per well) for 2 hours, and then TPO (final concentration: 100 ng/mL) was added to stimulate cells for 30 minutes. The cells were collected and lysed with protein lysate. The protein was quantitatively tested by BCA kit. Finally, p-STAT3/STAT3 and internal reference protein β-actin were detected by western blot.

| fraction unbound at 4 h, 2 μM [1] | fraction unbound at 4 h, 2 μM [2] | plasma exposure and bioavailability in mice (in words) [3] | AUC ([3]; iv, i.v. 2 mg/kg) [ng·h/mL] | Vd ([3]; iv, i.v. 2 mg/kg) [L/kg] | clearance ([3]; iv, i.v. 2 mg/kg) [mL/min/kg] | half-life ([3]; iv, i.v. 2 mg/kg) [min] | AUC ([3]; po, p.o. 10 mg/kg) [ng·h/mL] | Cmax ([3]; po, p.o. 10 mg/kg) [ng/mL] | Tmax ([3]; po, p.o. 10 mg/kg) [min] | F ([3]; p.o. 10 mg/kg) [%] | SMILES | effect on TPO-induced downstream STAT3 phosphorylation [4] |
| --- | --- | --- | --- | --- | --- | --- | --- | --- | --- | --- | --- | --- |
| 0.042 | 0.055 | good plasma exposure and bioavailability | 1940 | 1.5 | 17.2 | 60 | 4140 | 1180 | 180 | 43 | CCC(=O)c1cnc(NC(=O)C2CC2)cc1Nc1cccc(-c2cc(P(C)(C)=O)n(C)n2)c1OC [Compound B2, N-(4-((3-(5-(dimethylphosphoryl)-1-methyl-1H-pyrazol-3-yl)-2-methoxyphenyl)amino)-5-propionylpyridin-2-yl)cyclopropanecarboxamide] |  |
|  |  | good plasma exposure and bioavailability | 1350 | 3.1 | 25.4 | 84 | 6370 | 2630 | 19.8 | 94 | [2H]C([2H])([2H])n1nc(-c2cccc(Nc3cc(NC(=O)C4CC4)ncc3C(=O)CC)c2OC)cc1P(C)(C)=O [Compound B22] |  |
|  |  | good plasma exposure and bioavailability | 2160 | 0.84 | 15.5 | 37.8 | 8420 | 4250 | 25.2 | 78 | CCC(=O)c1cnc(NC(=O)C2CC2)cc1Nc1cccc(-c2cc(P(=O)(C3CC3)C3CC3)n(C)n2)c1OC [Compound B37, N-(4-((3-(5-(dicyclopropylphosphoryl)-1-methyl-1H-pyrazol-3-yl)-2-methoxyphenyl)amino)-5-propionylpyridin-2-yl)cyclopropanecarboxamide] | no effect |
| 0.076 | 0.045 | good plasma exposure and bioavailability | 2670 | 1.2 | 12.7 | 66 | 11900 | 6560 | 30 | 89 | [2H]C([2H])([2H])NC(=O)c1nnc(NC(=O)C2CC2)cc1Nc1cccc(-c2cc(P(=O)(C3CC3)C3CC3)n(C)n2)c1OC [Compound B41, 6-(cyclopropanecarboxamido)-4-((3-(5-(dicyclopropylphosphoryl)-1-methyl-1H-pyrazol-3-yl)-2-methoxyphenyl)amino)-N-(methyl-d3)pyridazine-3-carboxamide] | no effect |
